The target in this assay is T1, neuronal SNAREs and Syt1(QM) (Rattus norvegicus, UniProt P21707, E295A/R281A/R398A/R399A/Y338W).
T1 construct: made in house
The assay is described as follows: Single-vesicle content mixing assay, neuronal SNAREs and Syt1(QM). The class given is biochemical.

The mark [1] stands for this setting: 10 μM SP9, each value one repeat experiment.
The mark [2] stands for this setting: 500 μM Ca2+, 10 μM SP9, each value one repeat experiment.

Results on one compound are retold here after article PMC8967716, “Inhibition of calcium-triggered secretion by hydrocarbon-stapled peptides” (Nature, 2022).

Molecules are shown by their SMILES. Values joined by “and” are separate entries in the source; they are usually repeats but may differ in a detail not shown here. Identical values can stand only once. Positions of bridges follow the written chain, without caps; N, C: chain ends. Non-standard residues stand in square brackets, D forms with d. Residues, ends and D or L forms follow the SMILES beside them. S5 = C=CCCC[C@](C)(N)C(=O)O

T1 sequence (P21707 whole entry R281A/E295A/Y338W/R398A/R399A): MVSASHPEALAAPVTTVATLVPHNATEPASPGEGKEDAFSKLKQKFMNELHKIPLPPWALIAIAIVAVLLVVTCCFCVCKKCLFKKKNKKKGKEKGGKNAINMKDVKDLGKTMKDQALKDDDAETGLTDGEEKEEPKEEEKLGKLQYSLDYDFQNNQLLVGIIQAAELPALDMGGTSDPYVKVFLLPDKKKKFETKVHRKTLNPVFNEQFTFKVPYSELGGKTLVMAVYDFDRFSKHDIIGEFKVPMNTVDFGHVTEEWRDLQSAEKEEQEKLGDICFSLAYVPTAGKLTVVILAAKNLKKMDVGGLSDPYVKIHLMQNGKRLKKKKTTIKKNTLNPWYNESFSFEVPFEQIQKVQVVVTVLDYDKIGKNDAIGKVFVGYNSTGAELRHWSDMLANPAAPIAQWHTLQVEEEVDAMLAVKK

As to `CC[C@H](C)[C@H](NC(=O)[C@]1(C)CCCC=CCCC[C@](C)(NC(=O)[C@H](CCC(=O)O)NC(=O)[C@H](CCC(=O)O)NC(C)=O)C(=O)N[C@@H](CCCCN)C(=O)N[C@@H](CC(=O)O)C(=O)N[C@@H](C)C(=O)N1)C(=O)N[C@@H](CCCNC(=N)N)C(=O)N[C@@]1(C)CCCC=CCCC[C@@](C)(C(=O)N[C@@H](CC(=O)O)C(=O)N[C@@H](CCC(=O)O)C(=O)N[C@@H](CCC(N)=O)C(=O)N[C@@H](CS)C(N)=O)NC(=O)[C@H](CCSC)NC(=O)[C@H](C(C)C)NC(=O)[C@H](CC(C)C)NC1=O` [SP9] (Ac-EE[S5]KDA[S5]IR[S5]LVM[S5]DEQC-NH2; staple 3-7, 10-14), under setting [1], the “Ca2+ independent fusion per sec (average probability)” value is 0.0007051 and 0.0008431 and 0.0008917; the Vesicle association is 67 and 40 and 70. Under setting [2], the “Ca2+ triggered fusion accumulative probability (within 1 min)” value was 0.0513 and 0.04654 and 0.06303; the “Ca2+ triggered fusion amplitude (first 1-sec time bin)” value was 0.004413 and 0.005288 and 0.004669. For the same compound, the “effect on Ca2+-independent or Ca2+-triggered fusion with Syt1(QM)” value (SP9 vs no peptide) is reported as “little effect”.
